Experimental data: patent publication US20260184700A1, “PDK1 REGULATORY COMPOUND AND COMPOSITION CONTAINING THE SAME” (PROVIBIO CO., LTD., priority 2024, published 2026)

Columns and labels:
[1] = system: psoriasis-induced BALB/c mice; experiment: Psoriasis animal model (Aldara cream, Imiquimod); assay type: in vivo, mouse
Experimental: To verify the therapeutic effect of the compound according to the present invention on psoriasis, a psoriasis animal model was established as follows, and the compound according to the present invention was administered to evaluate the alleviation of skin lesions and changes in immune cell patterns.
For the establishment of the psoriasis animal model, BALB/c mice (7 weeks old, female, 20 g) were purchased from HanabioTech Co., Ltd. and acclimatized to the rearing environment for one week.
Subsequently, the hair on the mouse back was shaved using a hair removal device for the first time, and then completely shaved using a depilatory cream (Nicrin Cream (80% thioglycolic acid, Il Dong Pharmaceutical)) for the second time. The mice were then kept for 24 hours to confirm the absence of skin damage.
To verify the psoriasis prevention and therapeutic effects of the compounds according to the present invention, the following experimental groups were established:
[Normal control group (Normal, Not Treatment), psoriasis-induced control group (Psoriasis, Not Treatment), psoriasis-induced vehicle control group (Psoriasis, Vehicle), experimental group (GO85, GO86, GO88, GO89, PBK-2024-010, PBK-2024-026, PBK-2025-002, PBK-2025-004, PBK-2025-016, PBK-2025-017, PBK-2025-023)]. […]
Body weights of mice in each group were measured on days 1, 4, and 8 after the start of injection and psoriasis induction. […]
To evaluate the therapeutic effect in a psoriasis-induced mouse model, the PASI (Psoriasis Area and Severity Index) score was measured.
The PASI score is based on three criteria: erythema, scaling, and skin thickness, each scored from 0 (none) to 4 (severe). […]
Observations were conducted daily at the same time, and the same observer visually assessed each criterion and recorded the scores, with the results presented in FIG. 13. […]
All samples were measured in duplicate, and the absorbance was measured at 450 nm using a microplate reader.

[2] = system: phospho-PDK1 in SU-DHL-8 cells; experiment: PDK1 phosphorylation (pPDK1) by flow cytometry in SU-DHL-8 cells; assay type: cell-based, human; conditions: SU-DHL-8, 24 hours, pPDK1-PE flow cytometry, vs control group
Experimental: SU-DHL-8 cells were cultured in RPMI-1640 medium (containing 10% FBS, 100 U/mL penicillin, and 100 μg/mL streptomycin), and the cell concentration was adjusted to 1×10^6 cells/mL and seeded into a 12-well plate. After stabilizing the cells, the compound of the present invention was added, and the cells were cultured for 24 hours.
After drug treatment, the cells were harvested, and the Fc receptor blocking process was performed. The cells were then fixed and permeabilized using the Intracellular Staining Kit (Cat. No. BD554715) from BD Biosciences. Subsequently, the intracellular pPDK1 was stained using the pPDK1-PE fluorescently labeled antibody (BD Biosciences).
Referring to the figure, the vertical axis represents the phosphorylation level of PDK1 (phospho-PDK1 expression level), and the horizontal axis denotes the concentration-dependent treatment conditions of each compound.

Structure (SMILES)	efficacy in improving dermatological symptoms [1]	PDK1 phosphorylation (phospho-PDK1 expression level) [2]
Nc1ncccc1C(=O)NCCCCCCCCCCCCN1CCNCC1 [Compound 14, 2-Amino-N-(12-(piperazin-1-yl)dodecyl)nicotinamide]	excellent efficacy in improving dermatological symptoms	stronger PDK1 inhibition
CC1(C)CN(CCCCCCCCCCCCC(=O)Nc2nc(N)c3[nH]cnc3n2)CCO1 [Compound 11, 12-[4-(2,2-dimethylmorpholin-4-yl)]dodecyl-N-(6-aminopurine-2-yl)carboxamide]	excellent efficacy in improving dermatological symptoms	stronger PDK1 inhibition
